Like-named read-outs stand apart in the source and are kept apart here.
What was measured:
Format in all cases: biochemical
[1] = target: T1, human FGF-1 (flg) receptor tyrosine kinase (Homo sapiens, UniProt P11362); assay: FGF receptor tyrosine kinase assay (32P incorporation into glutamate-tyrosine co-polymer); details: for inhibition at 50 µM: read-out: FGFr-TK % Inhibition at 50 µM
T1 construct: amplify a fragment of DNA that codes for the intracellular tyrosine kinase domain; made in house; host or cells: SF9 insect cells (baculovirus)
Text: (§1) Full length cDNAs for the mouse PDGF-β and human FGF-1 (flg) receptor tyrosine kinases were obtained from J. Escobedo and prepared as described in J. Biol. Chem., 262:1482-1487 […], and PCR primers were designed to amplify a fragment of DNA that codes for the intracellular tyrosine kinase domain. The fragment was melded into a baculovirus vector, cotransfected with AcMNPV DNA, and the recombinant virus isolated. SF9 insect cells were infected with the virus to overexpress the protein, and the cell lysate was used for the assay. The assay was performed in 96-well plates (100 µL/incubation/well), and conditions were optimized to measure the incorporation of ^32P from γ^32P-ATP into a glutamate-tyrosine co-polymer substrate. Briefly, to each well was added 82.5 µL of incubation buffer containing 25 mM Hepes (pH 7.0), 150 mM NaCl, 0.1% Triton X-100, 0.2 mM PMSF, 0.2 mM Na3VO4, 10 mM MnCl2, and 750 µg/mL of Poly (4:1) glutamate-tyrosine followed by 2.5 µL of inhibitor and 5µL of enzyme lysate (7.5 µg/µL FGF-TK or 6.0 µg/µL PDGF-TK) to initiate the reaction. Following a 10 minute incubation at 25°C, 10 µL of γ^32P-ATP (0.4 µCi plus 50 µM ATP) was added to each well and samples were incubated for an additional 10 minutes at 25°C. The reaction was terminated by the addition of 100 µL of 30% trichloroacetic acid (TCA) containing 20 mM sodium pyrophosphate and precipitation of material onto glass fiber filter mats (Wallac). […] Nonspecific activity was defined as radioactivity retained on the filters following incubation of samples with buffer alone (no enzyme). Specific enzymatic activity was defined as total activity (enzyme plus buffer) minus nonspecific activity.

[2] = target: T2, mouse PDGF-β receptor tyrosine kinase (Mus musculus, UniProt P05622); assay: PDGF receptor tyrosine kinase assay (32P incorporation into glutamate-tyrosine co-polymer); details: for IC50: read-out: PDGFr-TK IC50; for inhibition at 50 µM: read-out: PDGFr-TK % Inhibition at 50 µM
T2 construct: amplify a fragment of DNA that codes for the intracellular tyrosine kinase domain; made in house; host or cells: SF9 insect cells (baculovirus)
Text: as §1

[3] = target: T3, Human EGF receptor tyrosine kinase (Homo sapiens, UniProt P00533); assay: EGF receptor tyrosine kinase enzyme assay (substrate peptide phosphorylation); details: for inhibition at 50 µM: read-out: EGF-FL % Inhibition at 50 µM; for IC50: read-out: EGF-FL IC50
T3 construct: Human EGF receptor tyrosine kinase was isolated from A431 epidermoid carcinoma cells; endogenous in cells; host or cells: A431 epidermoid carcinoma cells
Description: Human EGF receptor tyrosine kinase was isolated from A431 epidermoid carcinoma cells by the following methods. Cells were grown in roller bottles in 50% Dulbecco's Modified Eagle medium and 50% HAM F-12 nutrient media (Gibco) containing 10% fetal calf serum. Approximately 10^9 cells were lysed in two volumes of buffer containing 20 mM 2-(4N-[2-hydroxymethyl]-piperazin-1-yl)ethanesulfonic acid, pH 7.4, 5 mM ethylene glycol bis(2-aminoethyl ether) N,N,N',N'-tetraacetic acid, 1% Triton X-100, 10% glycerol, 0.1 mM sodium orthovanadate, 5 mM sodium fluoride, 4 mM pyrophosphate, 4 mM benzamide, 1 mM dithiothreitol, 80 µg/mL aprotinin, 40 µg/mL leupeptin, and 1 mM phenylmethylsulfonyl fluoride. […] Contaminating proteins were washed from the resin with 1 M NaCl in equilibration buffer, and the enzyme was eluted with 0.5 M N-acetyl-1-D-glucosamine in equilibration buffer.
The reaction was terminated by the addition of 2 mL of 75 mM phosphoric acid and passed through a 2.5-cm phosphocellulose filter disc to bind the peptide. The filter was washed 5 times with 75 mM phosphoric acid and placed in a vial along with 5 mL of scintillation fluid (Ready gel Heckman).

C-src kinase = target: T4, C-src kinase (Homo sapiens, UniProt P12931); assay: C-src kinase assay (poly GluTyr substrate); details: for IC50: read-out: C-src TK IC50; for inhibition at 50 µM: read-out: C-src TK % Inhibition at 50 µM
T4 construct: made in house; host or cells: baculovirus infected insect cells
Description: V-src or C-src kinase is purified from baculovirus infected insect cell lysates using an antipeptide monoclonal antibody directed against the N-terminal 2-17 amino acids. The antibody, covalently linked to 0.65-µm latex beads, is added to a suspension of insect cell lysis buffer comprised of 150 mM NaCl, 50 mM Tris pH 7.5, 1 mM DTT, 1% NP-40, 2 mM EGTA, 1 mM sodium vanadate, 1 mM PMSF, 1 µg/mL each of leupeptin, pepstatin, and aprotinin. […] At the end of the lysate incubation, the beads are rinsed 3 times in lysis buffer, resuspended in lysis buffer containing 10% glycerol, and frozen. These latex beads are thawed, rinsed 3 times in assay buffer which is comprised of 40 mM tris pH 7.5, 5 mM MgCl2, and suspended in the same buffer. In a Millipore 96-well plate with a 0.65 µm polyvinylidine membrane bottom are added the reaction components: 10-µL V-src or C-src beads, 10 µL of 2.5 mg/mL poly GluTyr substrate, 5 µM ATP containing 0.2 µCi labeled ^32P-ATP, 5µL DMSO containing inhibitors or as a solvent control, and buffer to make the final volume 125 µL. The reaction is started at room temperature by addition of the ATP and quenched 10 minutes later by the addition of 125 µL of 30% TCA, 0.1 M sodium pyrophosphate for 5 minutes on ice. […] The filters are punched, counted in a liquid scintillation counter, and the data examined for inhibitory activity in comparison to a known inhibitor such as erbstatin.

T2 sequence (P05622 599-961 limits assumed): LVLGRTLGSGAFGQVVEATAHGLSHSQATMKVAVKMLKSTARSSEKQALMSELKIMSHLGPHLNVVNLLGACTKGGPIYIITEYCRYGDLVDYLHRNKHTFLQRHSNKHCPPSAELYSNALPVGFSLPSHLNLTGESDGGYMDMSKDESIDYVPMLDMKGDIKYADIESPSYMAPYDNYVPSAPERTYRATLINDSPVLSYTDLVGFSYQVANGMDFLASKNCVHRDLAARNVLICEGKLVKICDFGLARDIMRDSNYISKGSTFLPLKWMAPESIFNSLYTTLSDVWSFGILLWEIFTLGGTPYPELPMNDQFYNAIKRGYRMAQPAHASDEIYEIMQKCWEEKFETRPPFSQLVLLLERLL
T1 sequence (P11362 478-767 limits assumed): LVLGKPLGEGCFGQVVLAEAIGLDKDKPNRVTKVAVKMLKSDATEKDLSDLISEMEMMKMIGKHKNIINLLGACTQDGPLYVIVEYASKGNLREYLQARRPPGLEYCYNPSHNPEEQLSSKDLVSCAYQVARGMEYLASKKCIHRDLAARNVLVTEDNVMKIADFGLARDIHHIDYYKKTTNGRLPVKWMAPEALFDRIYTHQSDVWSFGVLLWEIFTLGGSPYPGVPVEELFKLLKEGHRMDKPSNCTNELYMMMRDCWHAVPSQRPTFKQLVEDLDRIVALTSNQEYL
T4 sequence (P12931 whole entry): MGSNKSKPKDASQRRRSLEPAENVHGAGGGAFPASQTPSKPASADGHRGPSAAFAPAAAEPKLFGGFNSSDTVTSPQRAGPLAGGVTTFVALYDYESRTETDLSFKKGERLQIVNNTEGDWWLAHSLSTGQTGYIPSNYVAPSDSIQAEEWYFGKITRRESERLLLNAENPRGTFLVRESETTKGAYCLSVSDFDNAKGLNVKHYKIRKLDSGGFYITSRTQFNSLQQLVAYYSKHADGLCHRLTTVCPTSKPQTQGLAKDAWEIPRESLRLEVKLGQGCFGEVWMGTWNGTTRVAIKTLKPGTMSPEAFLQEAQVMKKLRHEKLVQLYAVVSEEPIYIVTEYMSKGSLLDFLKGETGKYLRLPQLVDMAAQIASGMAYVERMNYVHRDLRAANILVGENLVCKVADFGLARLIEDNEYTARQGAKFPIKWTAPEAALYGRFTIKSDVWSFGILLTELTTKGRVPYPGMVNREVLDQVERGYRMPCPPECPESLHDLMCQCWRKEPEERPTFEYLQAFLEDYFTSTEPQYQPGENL
T3 sequence (P00533 25-1210): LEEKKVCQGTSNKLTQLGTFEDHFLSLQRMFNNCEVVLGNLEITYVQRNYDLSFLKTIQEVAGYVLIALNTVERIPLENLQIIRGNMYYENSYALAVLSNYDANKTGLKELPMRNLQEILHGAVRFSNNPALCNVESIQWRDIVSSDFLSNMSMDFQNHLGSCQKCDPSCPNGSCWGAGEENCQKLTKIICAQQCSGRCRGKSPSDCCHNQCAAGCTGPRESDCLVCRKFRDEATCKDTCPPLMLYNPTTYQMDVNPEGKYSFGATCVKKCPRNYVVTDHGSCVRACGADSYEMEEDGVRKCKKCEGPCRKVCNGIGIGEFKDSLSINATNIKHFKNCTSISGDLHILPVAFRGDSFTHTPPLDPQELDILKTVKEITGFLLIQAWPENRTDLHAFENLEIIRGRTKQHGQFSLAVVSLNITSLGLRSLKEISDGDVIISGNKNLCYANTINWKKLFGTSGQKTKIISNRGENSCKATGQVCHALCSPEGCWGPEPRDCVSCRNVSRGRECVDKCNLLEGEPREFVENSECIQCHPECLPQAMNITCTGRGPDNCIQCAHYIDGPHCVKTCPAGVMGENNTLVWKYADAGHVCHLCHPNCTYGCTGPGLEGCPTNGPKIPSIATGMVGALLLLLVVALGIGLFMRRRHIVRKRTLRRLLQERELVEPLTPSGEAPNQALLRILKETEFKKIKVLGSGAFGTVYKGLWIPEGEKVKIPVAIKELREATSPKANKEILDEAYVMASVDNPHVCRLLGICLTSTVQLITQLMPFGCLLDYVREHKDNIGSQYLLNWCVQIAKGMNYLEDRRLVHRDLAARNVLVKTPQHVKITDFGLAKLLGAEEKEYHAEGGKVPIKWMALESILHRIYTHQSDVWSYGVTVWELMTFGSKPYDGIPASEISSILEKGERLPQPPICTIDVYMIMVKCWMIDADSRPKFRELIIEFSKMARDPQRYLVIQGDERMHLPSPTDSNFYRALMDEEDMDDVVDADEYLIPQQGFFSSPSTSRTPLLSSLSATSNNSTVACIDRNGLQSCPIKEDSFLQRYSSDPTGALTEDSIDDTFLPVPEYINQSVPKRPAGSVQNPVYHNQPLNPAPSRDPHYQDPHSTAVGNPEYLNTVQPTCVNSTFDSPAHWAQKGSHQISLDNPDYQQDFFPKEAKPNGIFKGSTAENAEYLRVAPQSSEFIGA

Row | IC50 ([1]; read-out: FGFr-TK IC50) | IC50 [2] | inhibition at 50 µM [3] | IC50 (C-src kinase) | inhibition at 50 µM (C-src kinase) | Compound | other results
1 | 6200 nM | 2560 nM | 88% | 290 nM | – | Cc1cccc(C)c1-c1cc2cnc(N)nc2n(C)c1=O [Example 13, 2-Amino-6-(2,6-dimethylphenyl)-8-methyl-pyrido[2,3-d]-pyrimidin-7(8H)-one] | –
2 | 7650 nM | 1410 nM | 65% | 3920 nM | – | Cc1ccccc1-c1cc2cnc(N)nc2n(C)c1=O [Example 14, 2-Amino-6-(2-methylphenyl)-8-methyl-pyrido[2,3-d]-pyrimidin-7(8H)-one] | –
3 | – | 980 nM | 77% | 155 nM | – | CCn1c(=O)c(-c2c(Cl)cccc2Cl)cc2cnc(N)nc21 [Example 30, 2-Amino-6-(2,6-dichlorophenyl)-8-ethyl-pyrido[2,3-d]-pyrimidin-7(8H)-one] | –
4 | 460 nM | 1200 nM | 100% | – | 100% | CCCn1c(=O)c(-c2c(Cl)cccc2Cl)cc2cnc(N)nc21 [Example 31, 2-Amino-6-(2,6-dichlorophenyl)-8-propyl-8H-pyrido[2,3-d]pyrimidin-7-one] | –
5 | 737 nM | 875 nM | 100% | – | 33% | CCCCn1c(=O)c(-c2c(Cl)cccc2Cl)cc2cnc(N)nc21 [Example 32, 2-Amino-8-butyl-6-(2,6-dichlorophenyl)-8H-pyrido[2,3-d]pyrimidin-7-one] | –
6 | 426 nM | 1840 nM | 95% | 890 nM | – | CC(C)Cn1c(=O)c(-c2c(Cl)cccc2Cl)cc2cnc(N)nc21 [Example 33, 2-Amino-6-(2,6-dichlorophenyl)-8-isobutyl-8H-pyrido[2,3-d]pyrimidin-7-one] | –
7 | – | 5980 nM | 70% | – | 36% | Cn1c(=O)c(-c2c(Cl)cccc2Cl)cc2cnc(NCCCN3CCOCC3)nc21 [Example 47, 6-(2,6-Dichlorophenyl)-8-methyl-2-(3-morpholin-4-yl-propylamino)-8H-pyrido[2,3-d]pyrimidin-7-one] | –
8 | 6520 nM | 9380 nM | – | 1640 nM | – | Cn1c(=O)c(-c2c(Cl)cccc2Cl)cc2cnc(NC3CCCCC3)nc21 [Example 60, 2-Cyclohexylamino-6-(2,6-dichlorophenyl)-8-methyl-8H-pyrido[2,3-d]pyrimidin-7-one] | –
9 | 8600 nM | 26500 nM | – | – | 64% | Cn1c(=O)c(-c2c(Cl)cccc2Cl)cc2cnc(NCCCCCC(=O)OC(C)(C)C)nc21 [Example 61, 6-[6-(2,6-Dichlorophenyl)-8-methyl-7-oxo-7,8-dihydro-pyrido[2,3-d]pyrimidin-2-ylamino]-hexanoic acid, tert-butyl ester] | –
10 | 403 nM | 546 nM | – | – | – | COc1ccc(Nc2ncc3cc(-c4c(Cl)cccc4Cl)c(=O)n(C)c3n2)cc1 [Example 64, 6-(2,6-Dichlorophenyl)-2-(4-methoxyphenylamino)-8-methyl-8H-pyrido[2,3-d]pyrimidin-7-one] | IC50 [3]: 65 nM
11 | – | – | – | 52 nM | – | COc1cccc(Nc2ncc3cc(-c4c(Cl)cccc4Cl)c(=O)n(C)c3n2)c1 [Example 72, 6-(2,6-Dichlorophenyl)-2-(3-methoxyphenylamino)-8-methyl-8H-pyrido[2,3-d]pyrimidin-7-one] | IC50 [3]: 33 nM
12 | – | – | – | 44 nM | – | Cn1c(=O)c(-c2c(Cl)cccc2Cl)cc2cnc(Nc3cccnc3)nc21 [Example 79, 6-(2,6-Dichlorophenyl)-8-methyl-2-(pyridin-3-ylamino)-8H-pyrido[2,3-d]pyrimidin-7-one] | IC50 [1]: 172 nM; IC50 [3]: 110 nM
13 | – | 350 nM | – | – | – | Cn1c(=O)c(-c2c(Cl)cccc2Cl)cc2cnc(Nc3cccc(O)c3)nc21 [Example 87, 6-(2,6-Dichlorophenyl)-2-(3-hydroxyphenylamino)-8-methyl-8H-pyrido[2,3-d]pyrimidin-7-one] | IC50 [3]: 140 nM
14 | 69000 nM | 38000 nM | – | 95 nM | – | CCOC(=O)c1ccc(Nc2ncc3cc(-c4c(Cl)cccc4Cl)c(=O)n(C)c3n2)cc1 [Example 88, 4-[6-(2,6-Dichlorophenyl)-8-methyl-7-oxo-7,8-dihydro-pyrido[2,3-d]pyrimidin-2-ylamino]-benzoic acid, ethyl ester] | –
15 | 1490 nM | 1480 nM | – | 14 nM | – | CCOC(=O)c1cccc(Nc2ncc3cc(-c4c(Cl)cccc4Cl)c(=O)n(C)c3n2)c1 [Example 89, 3-[6-(2,6-Dichlorophenyl)-8-methyl-7-oxo-7,8-dihydro-pyrido[2,3-d]pyrimidin-2-ylamino]-benzoic acid, ethyl ester] | –
16 | 9240 nM | – | – | – | 52% | Nc1ncc2cc(-c3c(Cl)cccc3Cl)c(=O)n(CC(=O)O)c2n1 [Example 107, [2-Amino-6-(2,6-dichlorophenyl)-7-oxo-7H-pyrido[2,3-d]-pyrimidin-8-yl]-acetic acid] | inhibition at 50 µM [2]: 43%
17 | – | – | – | – | 0% | CCn1c(=O)c(-c2cc(C)cc(C)c2)cc2cnc(Nc3ccccc3)nc21 [Example 118, 6-(3,5-Dimethylphenyl)-8-ethyl-2-phenylamino-8H-pyrido[2,3-d]pyrimidin-7-one] | inhibition at 50 µM [1]: 29%; inhibition at 50 µM [2]: 12%
18 | – | 1830 nM | – | – | 29% | CCn1c(=O)c(-c2ccncc2)cc2cnc(Nc3ccccc3)nc21 [Example 120, 8-Ethyl-2-phenylamino-6-pyridin-4-yl-8H-pyrido[2,3-d]-pyriminin-7-one] | inhibition at 50 µM [1]: 2%
19 | – | – | – | – | 11% | CCn1c(=O)c(-c2ccc(-c3ccccc3)cc2)cc2cnc(Nc3ccccc3)nc21 [Example 124, 6-Biphenyl-4-yl-8-ethyl-2-phenylamino-8H-pyrido[2,3-d]-pyrimidin-7-one] | inhibition at 50 µM [1]: 15%; inhibition at 50 µM [2]: 38%

Row | Compound | IC50 ([1]; read-out: FGFr-TK IC50) | IC50 [2] | inhibition at 50 µM [3] | IC50 (C-src kinase) | inhibition at 50 µM (C-src kinase) | other results
20 | CN1CCN(CCCCCNc2ncc3cc(-c4c(Cl)cccc4Cl)c(=O)n(C)c3n2)CC1 [Example 81, 6-(2,6-Dichlorophenyl)-8-methyl-2-[5-(4-methylpiperazin-1-yl)-pentylamino]-8H-pyrido[2,3-d]pyrimdin-7-one] | – | 743 nM | – | – | 94% | IC50 [3]: 4500 nM
21 | Nc1ncc2cc(-c3c(Cl)cccc3Cl)c(=O)n(Cc3ccncc3)c2n1 [Example 113, 2-Amino-6-(2,6-dichlorophenyl)-8-pyridin-4-ylmethyl-8H-pyrido[2,3-d]pyrimidin-7-one] | – | 1760 nM | – | – | 87% | IC50 [3]: 6700 nM

From patent EP0823908B1, “PYRIDO[2,3-d]PYRIMIDINES FOR INHIBITING PROTEIN TYROSINE KINASE MEDIATED [sequence] PROLIFERATION” (Warner-Lambert Company LLC, priority 1995, dated 1996)
